# “And” between values parts separate entries of the source, which are not always exact repeats. Identical values can stand only once.
# System: Sprague Dawley rats
# Experiment: Incidental novel taste learning, microinjection to anterior insular cortex
# Format: in vivo, rat
# Settings: 1 μL of 20 μM to aIC
# Method: In order to evaluate the efficacy of some of the leading QR2is in vivo, we carried out double-blind experiments using 2 different modalities (Supplemental Methods), measuring memory that is dependent on different brain areas. First, cortical memory was tested using incidental novel taste learning (see Methods), in which an unfamiliar, but palatable and safe, taste is given for the first time, and the memory for this newly learned taste is then assessed 2 days later. This is done by measuring the volume of the taste consumed upon subsequent exposure to it ([32]) (Figure 4A). […] Next, hippocampal-dependent learning was evaluated using delay fear conditioning (DFC; see Methods) ([33]). […] In order to evaluate any possible effect of acute QR2i microinjection on metabolic stress in the mouse brain, ISR activation was measured by quantifying total and phosphorylated eukaryotic initiation factor 2 α (eIF2α) levels (Supplemental Figure 3A) and lipid peroxidation product, 4-hydroxynonenal (4-HNE; Supplemental Figure 3B), by immunoblot 3 hours after the injection.
# Rats were taught to drink from 2 pipettes each filled with 10 mL of water during a 20 minute period, over 3 days. […] The memory for the novel taste was then assessed after 20 minutes of liquid consumption by calculating a preference index as follows: (novel taste consumed/[novel taste consumed+water consumed]) × 100 ([32], [56]). […]
smiles,measurement,value
Cc1ccc(-c2cn3cccc(C)c3n2)cc1S(=O)(=O)N1CCCC1 [YB-808],NaCl preference (individual rats),38.6905 and 81.6144 and 53.3708 and 75.5102 and 61.3924 and 79.4286 and 85.6322 and 50.9317 and 62.1118 and 87.6289 and 81.5476 and 81.8182 and 84.5161 and 50.3067 and 72.807 and 50.2703 and 76.5766 and 61.9048

# Reference: publication PMC10541198, “Specific quinone reductase 2 inhibitors reduce metabolic burden and reverse Alzheimer’s disease phenotype in mice” (The Journal of Clinical Investigation, 2023)
